Data reported in ChEMBL document CHEMBL3885881, “DrugMatrix”.

Species on record: Rattus norvegicus
Test: DrugMatrix - Regimen: Daily Repeat
Format: toxicity, organism-based, Sprague-Dawley
Set-up: regimen Daily Repeat, gender Male, age 6-8 weeks
Conditions: in vivo, iv, vehicle 100 % SALINE; for ABSOLUTE BASOPHIL / ABSOLUTE EOSINOPHIL / ABSOLUTE LYMPHOCYTE / ABSOLUTE MONOCYTE / ABSOLUTE SEGMENTED NEUTROPHIL / BASOPHIL / EOSINOPHIL / ERYTHROCYTE COUNT / HEMATOCRIT / HEMOGLOBIN / LEUKOCYTE COUNT / LYMPHOCYTE / MEAN CORPUSCULAR HEMOGLOBIN / MEAN CORPUSCULAR HEMOGLOBIN CONCENTRATION / MEAN CORPUSCULAR VOLUME / MONOCYTE / NEUTROPHIL / NUCLEATED RED BLOOD CELLS / PLATELET COUNT: tissue Blood; for ALANINE AMINOTRANSFERASE / ALBUMIN / ALKALINE PHOSPHATASE / ASPARTATE AMINOTRANSFERASE / BLOOD UREA NITROGEN / CARBON DIOXIDE / CHLORIDE / CHOLESTEROL / CREATINE PHOSPHOKINASE / CREATININE / GLUCOSE / LACTATE DEHYDROGENASE / LIPASE / PHOSPHORUS / POTASSIUM / SODIUM / TOTAL BILIRUBIN / TOTAL PROTEIN / URIC ACID: tissue Plasma
[1] = 0 mg/kg, 72 h, dose level Control, time 3 day
[2] = 0 mg/kg, 120 h, dose level Control, time 5 day
[3] = 29 mg/kg, 72 h, dose level Low, time 3 day

For `C[n+]1ccccc1/C=N/O.[Cl-]` [PRALIDOXIME CHLORIDE], the “ABSOLUTE BASOPHIL” value [1] was 0 CELLS/uL, the “ABSOLUTE EOSINOPHIL” value [1] was 53.17 CELLS/uL and the “ABSOLUTE LYMPHOCYTE” value [1] was 13731.5 CELLS/uL. The “ABSOLUTE MONOCYTE” value [1] was 186.17 CELLS/uL, the “ABSOLUTE SEGMENTED NEUTROPHIL” value [1] was 1645.83 CELLS/uL and the BASOPHIL [1] was 0%. For the same compound, the EOSINOPHIL [1] was 0.33%, the “ERYTHROCYTE COUNT” value [1] was 5.57 x10E6/uL and the HEMATOCRIT [1] was 36.33%. The HEMOGLOBIN [1] was 13.47 G/DL, the “LEUKOCYTE COUNT” value [1] was 15.62 x10E3/uL and the LYMPHOCYTE [1] was 88.5%. For the same compound, the “MEAN CORPUSCULAR HEMOGLOBIN” value [1] was 24.22 pg, the “MEAN CORPUSCULAR HEMOGLOBIN CONCENTRATION” value [1] was 37.1 G/DL and the “MEAN CORPUSCULAR VOLUME” value [1] was 65.35 fL. The MONOCYTE [1] was 1.17%, the NEUTROPHIL [1] was 10% and the “NUCLEATED RED BLOOD CELLS” value [1] was 0.17 /100WBC. For the same compound, the “PLATELET COUNT” value [1] was 1295.5 x10E3/uL, the “ALANINE AMINOTRANSFERASE” value [1] was 46.83 u/L and the ALBUMIN [1] was 4.37 G/DL. For the same compound, the “ALKALINE PHOSPHATASE” value [1] was 414.33 u/L, the “ASPARTATE AMINOTRANSFERASE” value [1] was 72.5 u/L and the “BLOOD UREA NITROGEN” value [1] was 17 mg/dL. The “CARBON DIOXIDE” value [1] was 23.5 mmol/L, the CHLORIDE [1] was 102 MEQ/L and the CHOLESTEROL [1] was 80.33 mg/dL. For the same compound, the “CREATINE PHOSPHOKINASE” value [1] was 207.83 u/L, the CREATININE [1] was 0.22 mg/dL and the GLUCOSE [1] was 172.17 mg/dL. For the same compound, the “LACTATE DEHYDROGENASE” value [1] was 131 u/L, the LIPASE [1] was 10.33 u/L and the PHOSPHORUS [1] was 11.75 mg/dL. For the same compound, the POTASSIUM [1] was 6.83 MEQ/L, the SODIUM [1] was 145.28 MEQ/L and the “TOTAL BILIRUBIN” value [1] was 0.22 mg/dL. The “TOTAL PROTEIN” value [1] was 6.22 G/DL, the “URIC ACID” value [1] was 1.9 mg/dL and the “ABSOLUTE BASOPHIL” value [2] was 0 CELLS/uL. The “ABSOLUTE EOSINOPHIL” value [2] was 33 CELLS/uL, the “ABSOLUTE LYMPHOCYTE” value [2] was 12184 CELLS/uL and the “ABSOLUTE MONOCYTE” value [2] was 108 CELLS/uL. The “ABSOLUTE SEGMENTED NEUTROPHIL” value [2] was 958.33 CELLS/uL, the BASOPHIL [2] was 0% and the EOSINOPHIL [2] was 0.17%. For the same compound, the “ERYTHROCYTE COUNT” value [2] was 5.9 x10E6/uL, the HEMATOCRIT [2] was 36.58% and the HEMOGLOBIN [2] was 13.33 G/DL. For the same compound, the “LEUKOCYTE COUNT” value [2] was 13.28 x10E3/uL, the LYMPHOCYTE [2] was 91.17% and the “MEAN CORPUSCULAR HEMOGLOBIN” value [2] was 22.67 pg. The “MEAN CORPUSCULAR HEMOGLOBIN CONCENTRATION” value [2] was 36.47 G/DL, the “MEAN CORPUSCULAR VOLUME” value [2] was 62.13 fL and the MONOCYTE [2] was 0.83%. For the same compound, the NEUTROPHIL [2] was 7.83%, the “NUCLEATED RED BLOOD CELLS” value [2] was 0.33 /100WBC and the “PLATELET COUNT” value [2] was 1475.33 x10E3/uL. The “ALANINE AMINOTRANSFERASE” value [2] was 47 u/L, the ALBUMIN [2] was 4.35 G/DL and the “ALKALINE PHOSPHATASE” value [2] was 368.33 u/L. The “ASPARTATE AMINOTRANSFERASE” value [2] was 90.83 u/L, the “BLOOD UREA NITROGEN” value [2] was 15.5 mg/dL and the “CARBON DIOXIDE” value [2] was 26.5 mmol/L. For the same compound, the CHLORIDE [2] was 103.33 MEQ/L, the CHOLESTEROL [2] was 71.83 mg/dL and the “CREATINE PHOSPHOKINASE” value [2] was 585.33 u/L. For the same compound, the CREATININE [2] was 0.19 mg/dL, the GLUCOSE [2] was 171.17 mg/dL and the “LACTATE DEHYDROGENASE” value [2] was 388.83 u/L. The LIPASE [2] was 10.83 u/L, the PHOSPHORUS [2] was 11.75 mg/dL and the POTASSIUM [2] was 6.21 MEQ/L. For the same compound, the SODIUM [2] was 143.7 MEQ/L, the “TOTAL BILIRUBIN” value [2] was 0.17 mg/dL and the “TOTAL PROTEIN” value [2] was 6.17 G/DL. The “URIC ACID” value [2] was 1.98 mg/dL, the “ABSOLUTE BASOPHIL” value [3] was 0 CELLS/uL and the “ABSOLUTE EOSINOPHIL” value [3] was 0 CELLS/uL. The “ABSOLUTE LYMPHOCYTE” value [3] was 13602.67 CELLS/uL, the “ABSOLUTE MONOCYTE” value [3] was 59 CELLS/uL and the “ABSOLUTE SEGMENTED NEUTROPHIL” value [3] was 1538.33 CELLS/uL. The BASOPHIL [3] was 0%, the EOSINOPHIL [3] was 0% and the “ERYTHROCYTE COUNT” value [3] was 5.23 x10E6/uL. The HEMATOCRIT [3] was 33.13%, the HEMOGLOBIN [3] was 12.77 G/DL and the “LEUKOCYTE COUNT” value [3] was 15.2 x10E3/uL. The LYMPHOCYTE [3] was 89.67%, the “MEAN CORPUSCULAR HEMOGLOBIN” value [3] was 24.4 pg and the “MEAN CORPUSCULAR HEMOGLOBIN CONCENTRATION” value [3] was 38.53 G/DL. For the same compound, the “MEAN CORPUSCULAR VOLUME” value [3] was 63.37 fL, the MONOCYTE [3] was 0.33% and the NEUTROPHIL [3] was 10%. The “NUCLEATED RED BLOOD CELLS” value [3] was 0.33 /100WBC, the “PLATELET COUNT” value [3] was 1243.67 x10E3/uL and the “ALANINE AMINOTRANSFERASE” value [3] was 60 u/L. For the same compound, the ALBUMIN [3] was 4.27 G/DL, the “ALKALINE PHOSPHATASE” value [3] was 485.33 u/L and the “ASPARTATE AMINOTRANSFERASE” value [3] was 76.33 u/L. For the same compound, the “BLOOD UREA NITROGEN” value [3] was 18.67 mg/dL, the “CARBON DIOXIDE” value [3] was 25 mmol/L and the CHLORIDE [3] was 104.67 MEQ/L. For the same compound, the CHOLESTEROL [3] was 77.67 mg/dL, the “CREATINE PHOSPHOKINASE” value [3] was 170 u/L and the CREATININE [3] was 0.26 mg/dL. For the same compound, the GLUCOSE [3] was 180.67 mg/dL, the “LACTATE DEHYDROGENASE” value [3] was 87.67 u/L and the LIPASE [3] was 11 u/L. For the same compound, the PHOSPHORUS [3] was 13.93 mg/dL, the POTASSIUM [3] was 6.97 MEQ/L and the SODIUM [3] was 146.7 MEQ/L. For the same compound, the “TOTAL BILIRUBIN” value [3] was 0.23 mg/dL, the “TOTAL PROTEIN” value [3] was 5.97 G/DL and the “URIC ACID” value [3] was 1.47 mg/dL.
